From US7041700B2, “Substituted benzopyran derivatives against arrhythmia” (Nissan Chemical Industries, Ltd., priority 2001, dated 2006)

Assays:
[1] = tested on: Atrium; assay: Effects on the effective refractory period, atrium (anesthetized beagles, vagal nerve stimulation, S1-S2 extrastimulus); format: in vivo; conditions: 0.3 mg/kg intravenously, from 5 min after administration, basic cycle length 300 msec, bilateral vagal nerve stimulation, ERP after minus before drug
Procedure: (§1) Effects on the Effective Refractory Period
(§2) Beagles were anesthetized with pentobarbital sodium and thoracotomy was done along the median line under a respirator and the incision was made on the pericardium to expose the heart. ECG was recorded using bipolar electrodes attached to the surface of the right atrial free wall, right atrial auricle, and right ventricular free wall. The vagal nerves were stimulated using an electrostimulation device with Nichrome wires inserted into the vagal nerves in the neck bilaterally. The conditions for electrostimulation to the vagal nerves were set such that the RR intervals on ECG were prolonged by about 100 msec compared with those before the stimulation was started.
(§3) Atrial and ventricular effective refractory periods were determined by S1-S2 extrastimulus technique at basic cycle length of 300 msec during bilateral vagal nerve stimulation, using programmable electric stimulator. A train of 10 basic stimuli (S1) was followed by a premature extrastimulus (S2) at 2 times diastolic threshold.
(§4) For evaluation of drug effects, the atrial and ventricular effective refractory periods were determined before drug administration, then respective compound was administrated intravenously at the dose of 0.3 mg/kg, and the atrial and ventricular effective refactory periods were determined from 5 min after the administration.
(§5) The results were shown as the prolongation time on the atrial and ventricular effective refractory periods, i.e. [effective refractory period after drug administration]−[effective refactory period before drug administration] (msec).

[2] = tested on: Ventricle; assay: Effects on the effective refractory period, ventricle (anesthetized beagles, vagal nerve stimulation, S1-S2 extrastimulus); format: in vivo; conditions: 0.3 mg/kg intravenously, from 5 min after administration, basic cycle length 300 msec, bilateral vagal nerve stimulation, ERP after minus before drug
Procedure: as §1, §2, §3, §4, §5

Row | Compound | prolongation time on the effective refractory period (msec) Atrium [1] | prolongation time on the effective refractory period (msec) Ventricle [2]
1 | Cc1ccc2c(c1)[C@H](NCCc1ccc(Cl)cc1)[C@@H](O)C(C)(C)O2 [compound 2] | 23 ms | 4 ms
2 | CC1(C)Oc2ccc(C(N)=O)cc2[C@H](NCCc2ccccc2)[C@H]1O [compound 3] | 21 ms | 4 ms
3 | CC1(C)Oc2ccc(C(N)=O)cc2[C@H](NCCc2ccc(F)cc2)[C@H]1O [compound 4] | 23 ms | -10 ms
4 | CC1(C)Oc2cc([N+](=O)[O-])ccc2[C@H](NCCc2ccccc2)[C@H]1O [compound 6] | 36 ms | 9 ms
